Measured values published in patent publication US10519211B2, “Compounds as peptidic GLP1/glucagon/GIP receptor agonists” (SANOFI, priority 2016, dated 2019).

Tests used:
[1] = tested on: female diet-induced obese (DIO) C57BL/6NHsd mice; experiment: Acute and chronic effects after subcutaneous treatment in female diet-induced obese (DIO) mice; assay type: in vivo, mouse
Protocol: Female C57BL/6NHsd mice were ordered group housed from Envigo RMS Inc., shipped group housed and remained group housed with shipped cage mates in shoebox caging with wood chip bedding until day 38 of the predose phase. At the study start mice were between 25-26 weeks old.
Mice were housed under vivarium conditions that included a 12 h light/dark cycle (light phase 04:00 AM-4:00 PM), room temperatures between 23-26° C. and a relative humidity between 30-70%. All animals had free access to water and a high fat diet (TD97366) for 16 weeks prior to pharmacological intervention (dosing phase). Feed was replaced with fresh feed weekly until and for the last time on day 38 of the predose phase. During the subsequent dosing phase, approximately 50% of the remaining feed were removed, replaced with fresh feed, and pellets were mixed evenly once per week.
On predose day 38, obese DIO mice were assigned to treatment groups (n=8) to match mean body masses between all DIO groups. An age-matched group with ad libitum access to a rodent maintenance diet (Teklad Global Diets Rodent 2014, pelleted) was included in the study as a lean control group. In the predosing phase from day 32 through 38, all study animals were treated with vehicle (Phosphate Buffered Saline, PBS, Gibco, without CaCl2 and MgCl2) once daily (s.c. approximately 0.2 mL/mouse).
On day 37 of the predose phase, the test article was diluted with PBS to a concentration of 100 μg/mL and aliquots of this stock solution were stored at approximately ≤−60° C. Stock aliquots were thawed for weekly use and thereafter stored in a refrigerator at approximately 4° C. The injected test article solution was prepared fresh once on each dosing day by diluting stock solution with PBS to achieve the desired concentration.
Mice were treated twice daily with a s.c. injection of PBS-vehicle or the test article for 28 days. The morning dosing was initiated and completed between 06:00 and 07:30 AM and the afternoon dosing between 2:00 and 3:30 PM. On day 28 of the dosing phase only the morning dose was administered. The applied volume was 5 ml/kg and the dose was adjusted to the most recent body mass recording of each individual.
Animals had unlimited access to water and feed during the experiment. On day 1 of the dosing phase approximately 5 μL of blood were collected via tail clips at hour 0, prior to the first s.c. dose of PBS-vehicle or test-article as well as 1, 2, 3, 4, 6, and 24 hours post-dose. Animals received the second s.c. dose of PBS-vehicle or test-article 8 hours after the first dose. The 24 hour blood collection of the blood glucose profile was performed prior to dosing on day 2. Glucose measurements were performed in whole blood and in duplicate or triplicate using Aviva glucometers.
Body mass was measured daily approximately between 06:00-07:30 AM from day 32 through 38 of the predosing phase and throughout the 28 days of the dosing phase. During the dosing phase mice were treated twice daily with either a s.c. injection of PBS-vehicle or test article.
To determine whole body fat mass Quantitative Nuclear Magnetic Resonance (QNMR) measurements were performed on predosing day 37 and on day 26 of the dosing phase. During the dosing phase mice were treated twice daily with either a s.c. injection of PBS-vehicle or test article.
On day 28 blood was collected prior to any other inlife activities for determination of plasma insulin concentrations. Then the morning dose was administered and necropsy was performed 4 hours post-dose. For this purpose animals were anesthetized with isoflurane and blood was collected by orbital bleeding.
On day 28 and 4 hours after the morning dose, blood was collected from mice under isoflurane anesthesia as described above. Then mice were killed and livers were collected and weighed.
Data are depicted as means±SEM. […] A One-Way ANOVA and Tukey Test were used for pairwise multiple comparisons of all groups (n=8/group, deviations from group size are indicated). […]

[2] = target: T1, human GIP receptor (hGIP-R) (Homo sapiens, UniProt P48546); experiment: cAMP response (HTRF) of HEK-293 cells stably expressing human GIP receptor; assay type: cell-based; conditions: Table 8; cAMP formation
T1 construct: expressed in transfected cells; host or cells: HEK-293
T1 sequence (P48546 22-466): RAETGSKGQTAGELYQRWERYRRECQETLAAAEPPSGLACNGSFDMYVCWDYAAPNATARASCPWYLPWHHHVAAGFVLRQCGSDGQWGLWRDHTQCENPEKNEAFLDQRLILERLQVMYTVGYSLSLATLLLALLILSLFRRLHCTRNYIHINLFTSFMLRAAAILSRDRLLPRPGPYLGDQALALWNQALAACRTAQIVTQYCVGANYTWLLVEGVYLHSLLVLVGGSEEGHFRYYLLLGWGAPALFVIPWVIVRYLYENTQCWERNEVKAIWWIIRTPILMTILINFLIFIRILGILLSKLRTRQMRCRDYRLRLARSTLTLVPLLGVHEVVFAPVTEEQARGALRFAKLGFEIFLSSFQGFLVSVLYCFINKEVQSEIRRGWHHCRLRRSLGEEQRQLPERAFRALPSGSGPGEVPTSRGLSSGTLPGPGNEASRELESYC
How it was run: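 HEK-293 cells stably expressing the receptor, resuspended in HBSS/20 mM HEPES/0.1% BSA/2 mM IBMX at 400000 cells/ml, were exposed to increasing concentrations of peptide for 30 minutes at room temperature. Formed cAMP was measured by HTRF to give potency.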

[3] = 30 μg/kg s.c. twice daily, 28 days, in words
[4] = 30 μg/kg s.c. twice daily, day 28, in words
[5] = 30 μg/kg s.c. twice daily, in words
[6] = Table 9, twice-daily 30 μg/kg s.c., day 28, mean ± SEM

EC50 [2]: 7.9 pM
SMILES: CCCCCCCCCCCCCCCC(=O)N[C@@H](CCC(=O)N[C@@H](CCC(=O)NCCCC[C@H](NC(=O)[C@H](CC(C)C)NC(=O)[C@H](CCCCN)NC(=O)[C@H](CO)NC(=O)[C@H](CC(C)C)NC(=O)[C@H](CC(=O)O)NC(=O)[C@H](CO)NC(=O)[C@@H](NC(=O)[C@H](Cc1ccccc1)NC(=O)[C@@H](NC(=O)CNC(=O)[C@H](CCC(N)=O)NC(=O)C(C)(C)NC(=O)[C@@H](N)Cc1c[nH]cn1)[C@@H](C)O)[C@@H](C)O)C(=O)N[C@@H](CCC(=O)O)C(=O)N[C@@H](CCCCN)C(=O)N[C@@H](CCC(N)=O)C(=O)N[C@@H](CCCNC(=N)N)C(=O)N[C@@H](CCC(N)=O)C(=O)NC(C)(C)C(=O)N[C@@H](CCC(=O)O)C(=O)N[C@@H](Cc1ccccc1)C(=O)N[C@H](C(=O)N[C@@H](CCC(=O)O)C(=O)N[C@@H](Cc1c[nH]c2ccccc12)C(=O)N[C@@H](CC(C)C)C(=O)N[C@@H](CCCCN)C(=O)N[C@@H](C)C(=O)NCC(=O)NCC(=O)N1CCC[C@H]1C(=O)N1CCC[C@H]1C(=O)N[C@@H](CO)C(=O)NC(C)(C)C(=O)N[C@@H](CCCCN)C(=O)N1CCC[C@H]1C(=O)N1CCC[C@H]1C(=O)N1CCC[C@H]1C(=O)N[C@@H](CCCCN)C(N)=O)[C@@H](C)CC)C(=O)O)C(=O)O [SEQ ID NO: 6, H-Aib-Q-G-T-F-T-S-D-L-S-K-L-K[gGlu-gGlu-Palm]-E-K-Q-R-Q-Aib-E-F-I-E-W-L-K-A-G-G-P-P-S-Aib-K-P-P-P-K-NH2]
Body mass compared to the DIO-Vehicle group [1, 3]: statistically significant decrease in body mass
Whole body fat mass compared to the DIO-Vehicle group [1, 3]: statistically significantly reduction in whole body fat mass
Plasma insulin concentrations compared to DIO vehicle [1, 4]: statistically significant reduction in plasma insulin concentrations
Plasma total cholesterol concentrations compared to DIO vehicle [1, 4]: statistically significant reduction in plasma total cholesterol concentrations
Liver mass on day 28 compared to DIO animals treated with vehicle [1, 5]: statistically significantly lower liver mass
Plasma alanine aminotransferase concentration on day 28 compared to DIO vehicle [1, 5]: statistically significantly lower plasma alanine aminotransferase concentration
24 hour blood glucose profile following first treatment ([1]; 30 μg/kg s.c., day 1, fed DIO mice, vs DIO control, in words): decrease in blood glucose concentrations below concentrations observed in DIO control mice
Body mass change ([1]; Table 9, twice-daily 30 μg/kg s.c., 28 days, mean ± SEM): -5.36 ± 0.36 g
Whole body fat mass change ([1]; Table 9, twice-daily 30 μg/kg s.c., QNMR predose vs day 26, mean ± SEM): -4.33 ± 0.42 g
Terminal liver mass (g) [1, 6]: +1.16 ± 0.04 g
Terminal plasma alanine aminotransferase (U/L) [1, 6]: +62.25 ± 9.79 U/L
Terminal plasma insulin (U/L) [1, 6]: +31.07 ± 5.26 U/L
Terminal plasma total cholesterol (mmol/L) [1, 6]: +5.11 ± 0.12 mmol/L
